By IC50 is commonly meant the point on the concentration scale where inhibition reaches its midpoint.

These results are taken from BindingDB's records for doi:10.1021/jm9805081 (Warner-Lambert, 1999).

The target of this test is T1, Prostaglandin G/H synthase 2 (Homo sapiens, UniProt P35354).
T1 sequence (P35354 whole entry): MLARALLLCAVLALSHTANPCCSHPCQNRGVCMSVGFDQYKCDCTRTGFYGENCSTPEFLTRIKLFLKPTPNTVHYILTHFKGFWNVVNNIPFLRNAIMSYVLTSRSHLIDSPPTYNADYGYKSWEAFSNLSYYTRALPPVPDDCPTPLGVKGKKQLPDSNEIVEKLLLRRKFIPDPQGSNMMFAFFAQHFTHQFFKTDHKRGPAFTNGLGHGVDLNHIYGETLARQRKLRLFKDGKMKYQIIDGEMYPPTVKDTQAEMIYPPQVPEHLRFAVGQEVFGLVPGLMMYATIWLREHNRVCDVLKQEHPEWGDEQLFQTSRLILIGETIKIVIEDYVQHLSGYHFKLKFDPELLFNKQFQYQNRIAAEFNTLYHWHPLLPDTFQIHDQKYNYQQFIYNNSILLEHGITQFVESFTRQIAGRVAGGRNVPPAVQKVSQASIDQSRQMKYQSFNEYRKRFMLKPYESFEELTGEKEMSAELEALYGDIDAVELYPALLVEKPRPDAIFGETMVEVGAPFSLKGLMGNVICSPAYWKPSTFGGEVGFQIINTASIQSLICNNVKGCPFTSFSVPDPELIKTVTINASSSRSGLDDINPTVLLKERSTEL
The experiment in a line: IC50 value against recombinant human Prostaglandin G/H synthase 2 at 10 uM; not active.

As for `CONC1=NC(=O)C(=Cc2cc(C(C)(C)C)c(O)c(C(C)(C)C)c2)O1` [5-[1-(3,5-Di-tert-butyl-4-hydroxy-phenyl)-meth-(Z)-ylidene]-2-methoxyamino-oxazol-4-one], the IC50 is greater than 10 µM.
